Results as given in patent publication US20050209198A1, “Pharmaceutical composition comprising a bisphosphonate and a cox-2 inhibitor for the treatment of bone diseases” (priority 2002, published 2005).

Legend:
[1] = test system: patients with postmenopausal osteoporosis; assay: 24 months trial of iv zoledronic acid, bone mineral density (BMD) by DEXA; assay type: in vivo; conditions: bolus iv, dose administration as infrequent as every 6 or 12 months, compared to placebo
Protocol: (§1) A dose and dose regimen-finding 24 months trial of iv zoledronic acid in patients with postmenopausal osteoporosis is carried out. Three hundred and fifty one patients are randomized to six study arms. […] All patients are evaluated at baseline and in 3-monthly visits. Zoledronic acid or placebo was administered as a bolus iv injection into a peripheral vein over 5 minutes at every visit. Patients from both zoledronic acid treated and placebo groups also receive an oral COX-2 inhibitor (5-methyl-2-(2′-chloro-6′-fluoroanilino)phenylacetic acid—400 mg per day p.o.) or oral placebo.
(§2) Efficacy is ascertained by measurement of percent change from baseline in bone mineral density (BMD) measured by dual energy X-ray absorptiometry (DEXA) as compared to placebo, at 6, 9, and 12 months. Patients also maintain records of pain scores on a once weekly basis and are monitored for pain scores at the 3-monthly visits.
• Placebo • 0.25 mg zoledronic acid every 3 months • 0.5 mg zoledronic acid every 3 months • 1.0 mg zoledronic acid every 3 months • 2.0 mg zoledronic acid every 6 months • 4.0 mg zoledronic acid every 12 months each with 50% COX-2 treatment and 50% oral placebo.

[2] = test system: patients with postmenopausal osteoporosis; assay: Pain scores and general well being in the same trial, oral COX-2 inhibitor vs oral placebo; assay type: in vivo; conditions: 400 mg per day p.o. vs oral placebo, on zoledronic acid or placebo background
Protocol: as §1, §2

Structure (SMILES)	bone mineral density (BMD), bone mass change [1]	pain scores and general well being of patients [2]
O=P(O)(O)C(O)(Cn1ccnc1)P(=O)(O)O [zoledronic acid, 1-hydroxy-2-(imidazol-1-yl)ethane-1,1-diphosphonic acid]	statistically significant and medically relevant bone mass increase	
Cc1ccc(Nc2c(F)cccc2Cl)c(CC(=O)O)c1 [COX-2, 5-methyl-2-(2′-chloro-6′-fluoroanilino)phenylacetic acid]		show improvement over the oral placebo treated groups
